Structures can show the parent of a compound that is named as a salt. One block for each compound: values may come before it.
Columns and labels:
CDK2/cyclin A = molecular target: T1, CDK2/cyclin A (Homo sapiens, UniProt P24941); assay: Inhibition of CDK2/cyclin A retinoblastoma kinase activity (Ki; % inhibition); format: biochemical; settings: for Ki: apparent Ki, CDK2/cyclin A, Rb substrate
T1 construct: made in house; host or cells: CDK2: insect cells (baculovirus); cyclin A: E. coli
How it was run: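 Apparent Ki values came from fitting concentration-dependent activity data to competitive (or competitive tight-binding) models, and % inhibition from single 30 nM screens of library compounds. Activity was measured as ³²P/³³P incorporation from 25 μM ATP into an Rb substrate by 10 or 19 nM CDK2/delta cyclin A at 30 °C over 60–75 min, pH 7.4.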

human CDK4/cyclin D3 = molecular target: T2, human CDK4/cyclin D3 (Homo sapiens, UniProt P11802); assay: Inhibition of CDK4/cyclin D retinoblastoma kinase activity (Ki; % inhibition); format: biochemical; settings: for Ki: apparent Ki, CDK4/cyclin D3, Rb substrate
T2 construct: made in house; host or cells: insect cells co-infected with baculovirus vectors
T2 sequence (P11802 whole entry): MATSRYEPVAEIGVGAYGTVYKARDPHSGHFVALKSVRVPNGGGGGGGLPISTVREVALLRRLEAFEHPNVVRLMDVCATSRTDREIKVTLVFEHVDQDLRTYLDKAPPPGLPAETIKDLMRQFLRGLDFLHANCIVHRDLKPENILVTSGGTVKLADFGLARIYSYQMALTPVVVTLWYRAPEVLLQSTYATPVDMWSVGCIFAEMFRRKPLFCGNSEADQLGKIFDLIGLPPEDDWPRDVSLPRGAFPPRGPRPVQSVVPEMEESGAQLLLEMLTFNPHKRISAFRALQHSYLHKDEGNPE
T2 sequence (P30281 1-264 partner limits assumed): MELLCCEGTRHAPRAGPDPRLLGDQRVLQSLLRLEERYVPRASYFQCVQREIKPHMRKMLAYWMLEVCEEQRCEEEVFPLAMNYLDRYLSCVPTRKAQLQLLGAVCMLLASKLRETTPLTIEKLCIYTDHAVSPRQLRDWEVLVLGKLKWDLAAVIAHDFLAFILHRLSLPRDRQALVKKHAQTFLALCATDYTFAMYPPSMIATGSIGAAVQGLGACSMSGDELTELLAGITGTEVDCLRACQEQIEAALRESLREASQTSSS
How it was run: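 Radiometric filter-binding read-out: Rb residues 386-928 phosphorylated by 5 nM CDK4/cyclin D3(1-264) from baculovirus-infected insect cells, 25 μM ATP, HEPES pH 7.4, 30 °C. Run 20 min, or 60 min for tight-binding inhibitors. Screening at 30 nM theoretical compound; apparent Ki by competitive-inhibition fitting.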

HCT-116 cell line = assay: Inhibition of cell growth, MTT tetrazolium salt assay; format: cell-based; settings: for IC50: Homo sapiens, HCT-116, 120 h, MTT, three to five days
How it was run: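 HCT-116 cells in McCoy's 5A were dosed 4 h after plating with compounds in 0.5% DMSO and grown 3–5 days at 37 °C. Then 0.2 mg/mL MTT was added for 4 h and formazan absorbance read at 540 nm. IC50/IC90 came from semi-log plots against DMSO-only controls.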

[1] = HCT-116 cells, 0.25 μM compound

CDK2 % Inhibition at 0.03 μM (CDK2/cyclin A; 0.03 μM compound): −9%
CDK4 % Inhibition at 0.03 μM (human CDK4/cyclin D3; 0.03 μM compound): 13%
Structure (SMILES): Nc1nc(Nc2ccc(C(=O)NCCOCCO)cc2)sc1C(=O)c1c(F)cccc1F [Example G264]
HCT-116 % Inhibition at 0.1 μM (HCT-116 cell line; HCT-116 cells, 0.1 μM compound): 22%
HCT-116 % Inhibition at 0.25 μM (HCT-116 cell line; [1]): 53%

CDK2 % Inhibition at 0.03 μM (CDK2/cyclin A; at 0.03 μM): 9%
CDK4 % Inhibition at 0.03 μM (human CDK4/cyclin D3; at 0.03 μM): 27%
Structure (SMILES): Nc1nc(Nc2ccc(C(=O)NCCCN3CCOCC3)cc2)sc1C(=O)c1c(F)cccc1F [Example G132]
HCT-116 % Inhibition at 0.1 μM (HCT-116 cell line; HCT-116, at 0.1 μM): 0%
HCT-116 % Inhibition at 0.25 μM (HCT-116 cell line; HCT-116, at 0.25 μM): 52%

Ki (CDK2/cyclin A): 0.0073 µM
Ki (human CDK4/cyclin D3): 0.051 µM
IC50 (HCT-116 cell line): 1.9 µM
Structure (SMILES): CN1CC(CNC(=O)c2ccc(Nc3nc(N)c(C(=O)c4c(F)cccc4F)s3)cc2)C1 [Example A75, 4-[4-Amino-5-(2,6-difluoro-benzoyl)-thiazol-2-ylamino]-N-(1-methyl-azetidin-3-ylmethyl)-benzamide]

Ki (CDK2/cyclin A): 1.2 µM
Ki (human CDK4/cyclin D3): 36 µM
IC50 (HCT-116 cell line): > 5 µM
Structure (SMILES): CN1CCC[C@H]1CNC(=O)c1ccc(Nc2nc(N)c(C(=O)c3ccccc3S(C)(=O)=O)s2)cc1 [Example A73, 4-{4-Amino-5-(2-methanesulfonyl-benzoyl)-thiazol-2-ylamino}-N-(1-methyl-pyrrolidin-2S-ylmethyl)-benzamide Trifluoroacetic Acid Salt]

CDK2 % Inhibition at 0.03 μM (CDK2/cyclin A; 0.03 μM compound): 1%
CDK4 % Inhibition at 0.03 μM (human CDK4/cyclin D3; 0.03 μM compound): 37%
Structure (SMILES): CCCCN(CC)CCNC(=O)c1ccc(Nc2nc(N)c(C(=O)c3c(F)cccc3F)s2)cc1 [Example G331]
HCT-116 % Inhibition at 0.1 μM (HCT-116 cell line; HCT-116 cells, 0.1 μM compound): 54%
HCT-116 % Inhibition at 0.25 μM (HCT-116 cell line; [1]): 93%

CDK2 % Inhibition at 0.03 μM (CDK2/cyclin A; 0.03 μM compound): 1%
CDK4 % Inhibition at 0.03 μM (human CDK4/cyclin D3; 0.03 μM compound): 12%
Structure (SMILES): Nc1nc(Nc2ccc(C(=O)NCCc3cccnc3)cc2)sc1C(=O)c1c(F)cccc1F [Example G343]
HCT-116 % Inhibition at 0.1 μM (HCT-116 cell line; HCT-116 cells, 0.1 μM compound): 27%
HCT-116 % Inhibition at 0.25 μM (HCT-116 cell line; [1]): 71%

Ki (CDK2/cyclin A): 0.22 µM
Ki (human CDK4/cyclin D3): 0.008 µM
IC50 (HCT-116 cell line): 0.52 µM
Structure (SMILES): CN(C)CCNC(=O)c1ccc(Nc2nc(N)c(C(=O)c3c(Cl)cccc3Cl)s2)cc1 [Example B4, 4-[4-Amino-5-(2,6-dichloro-benzoyl)-thiazol-2-ylamino]-N-(2-dimethylamino-ethyl)-benzamide]

CDK2 % Inhibition at 0.03 μM (CDK2/cyclin A; at 0.03 μM): 19%
CDK4 % Inhibition at 0.03 μM (human CDK4/cyclin D3; at 0.03 μM): 19%
Structure (SMILES): COC(=O)c1ccc(NC(=O)c2ccc(Nc3nc(N)c(C(=O)c4c(F)cccc4F)s3)cc2)cc1 [Example G61]
HCT-116 % Inhibition at 0.25 μM (HCT-116 cell line; HCT-116, at 0.25 μM): 58%

CDK2 % Inhibition at 0.03 μM (CDK2/cyclin A; at 0.03 μM): 6%
CDK4 % Inhibition at 0.03 μM (human CDK4/cyclin D3; at 0.03 μM): 3%
Structure (SMILES): Nc1nc(Nc2ccc(C(=O)Nc3cc(F)cc(F)c3)cc2)sc1C(=O)c1c(F)cccc1F [Example G68]
HCT-116 % Inhibition at 0.25 μM (HCT-116 cell line; HCT-116, at 0.25 μM): 59%

CDK2 % Inhibition at 0.03 μM (CDK2/cyclin A; at 0.03 μM): −12%
CDK4 % Inhibition at 0.03 μM (human CDK4/cyclin D3; at 0.03 μM): 6%
Structure (SMILES): CN(CCc1ccccc1)C(=O)c1ccc(Nc2nc(N)c(C(=O)c3c(F)cccc3F)s2)cc1 [Example G11]
HCT-116 % Inhibition at 0.25 μM (HCT-116 cell line; HCT-116, at 0.25 μM): 49%

CDK2 % Inhibition at 0.03 μM (CDK2/cyclin A; at 0.03 μM): −16%
CDK4 % Inhibition at 0.03 μM (human CDK4/cyclin D3; at 0.03 μM): 10%
Structure (SMILES): CCN(CCO)C(=O)c1ccc(Nc2nc(N)c(C(=O)c3c(F)cccc3F)s2)cc1 [Example G25]
HCT-116 % Inhibition at 0.25 μM (HCT-116 cell line; HCT-116, at 0.25 μM): 52%

CDK2 % Inhibition at 0.03 μM (CDK2/cyclin A; 0.03 μM compound): 29%
CDK4 % Inhibition at 0.03 μM (human CDK4/cyclin D3; 0.03 μM compound): 34%
Structure (SMILES): Nc1nc(Nc2ccc(C(=O)NCc3ccccc3F)cc2)sc1C(=O)c1c(F)cccc1F [Example G221]
HCT-116 % Inhibition at 0.1 μM (HCT-116 cell line; HCT-116 cells, 0.1 μM compound): 20%
HCT-116 % Inhibition at 0.25 μM (HCT-116 cell line; [1]): 74%

CDK2 % Inhibition at 0.03 μM (CDK2/cyclin A; at 0.03 μM): 2%
CDK4 % Inhibition at 0.03 μM (human CDK4/cyclin D3; at 0.03 μM): 11%
Structure (SMILES): COC(CNC(=O)c1ccc(Nc2nc(N)c(C(=O)c3c(F)cccc3F)s2)cc1)OC [Example G97]
HCT-116 % Inhibition at 0.1 μM (HCT-116 cell line; HCT-116, at 0.1 μM): 28%
HCT-116 % Inhibition at 0.25 μM (HCT-116 cell line; HCT-116, at 0.25 μM): 56%

CDK2 % Inhibition at 0.03 μM (CDK2/cyclin A; at 0.03 μM): −4%
CDK4 % Inhibition at 0.03 μM (human CDK4/cyclin D3; at 0.03 μM): 12%
Structure (SMILES): CCOCCNC(=O)c1ccc(Nc2nc(N)c(C(=O)c3c(F)cccc3F)s2)cc1 [Example G136]
HCT-116 % Inhibition at 0.1 μM (HCT-116 cell line; HCT-116, at 0.1 μM): 0%
HCT-116 % Inhibition at 0.25 μM (HCT-116 cell line; HCT-116, at 0.25 μM): 49%

CDK2 % Inhibition at 0.03 μM (CDK2/cyclin A; at 0.03 μM): 3%
CDK4 % Inhibition at 0.03 μM (human CDK4/cyclin D3; at 0.03 μM): 9%
Structure (SMILES): CC(C)CC(C)NC(=O)c1ccc(Nc2nc(N)c(C(=O)c3c(F)cccc3F)s2)cc1 (centres unmarked) [Example G125]
HCT-116 % Inhibition at 0.1 μM (HCT-116 cell line; HCT-116, at 0.1 μM): 13%
HCT-116 % Inhibition at 0.25 μM (HCT-116 cell line; HCT-116, at 0.25 μM): 59%

— patent US6720346B2, “Thiazole benzamide derivatives and pharmaceutical compositions for inhibiting cell proliferation” (Agouron Pharmaceuticals, Inc., priority 2001, dated 2004)
